In patent US20140099256A1, “RADIOACTIVE LUMINESCENT NANOPARTICLE COMPOSITIONS” (The Board of Regents of the University of Texas System, priority 2012, published 2014):

What was measured:
Assay type in all cases: in vivo, BALB/c mice
[1] = Renal clearance kinetics (copper content in urine) of GS-CuNPs and Cu(II)-GSSG complex
Procedure: (§1) FIGS. 2A to 2E show (A) Ex vivo fluorescent images of urine of control mice or mice injected with luminescent GS-CuNPs (λex=510 nm, λem=790 nm); (B) Copper contents (n=6) in the urine at different times post injection (p.i.); (C) Biodistribution of Cu(II)-GSSG complex and luminescent GS-CuNPs in BALB/c mice (n=6) 24 h after the tail-vein injection; (D) Liver-tourine ratios of Cu(II)-GSSG complex and GS-CuNPs at 24 h p.i; (E) Pharmacokinetics (n=3) of the renal clearable Cu(II)-GSSG complex and luminescent GS-CuNPs in 24 h p.i.
Although “being small” is generally seen as an efficient approach to boost the clearance of biomaterials from the body, the avidity between materials and serum proteins also plays an important role in the excretion. Seemingly a dilemma, it is hard to know which factors in the renal excretion of GS-CuNPs and Cu(II)-GSSG complex are reliably important. As such, the renal clearance kinetics and biodistribution of GS-CuNPs and Cu(II)-GSSG complex were evaluated in BALB/c mice (FIGS. 2A and 2B). For GS-CuNPs, 78.5±3.5% of injected copper was excreted from the body into the urine after 24 h p.i., and over 60% of copper was actually eliminated from the body in the first 2 h p.i (FIG. 2B).

[2] = Biodistribution of Cu(II)-GSSG complex and GS-CuNPs after tail-vein injection; details: 24 h after tail-vein injection, background copper deducted
Procedure: as §1
(§2) The detailed biodistribution studies of mice injected with GS-CuNPs and Cu(II)-GSSG complexes were consistent with their renal clearance profiles (FIG. 2C). In view of the background of copper, the average copper contents in the various organs/tissues and urine from three BALB/c mice have been deducted. […] However, compared to free Cu ions that often bind to caeruloplasmin and hephaestin and mainly accumulate in the liver, both GS-CuNPs and Cu(II)-GSSG complexes had much lower accumulation in RES, which was because GSH minimized the serum protein absorption and render them the efficient renal clearance. […] As a result, liver-to-urine ratio (−0.16) of CuNPs is more than 4 times lower than that of Cu(II)-GSSG complex (FIG. 2D).

[3] = Blood pharmacokinetics of Cu(II)-GSSG complex and GS-CuNPs; details: 24 h p.i.
Procedure: as §1, §2

additional increase in urine excretion of copper metal ([1]; after 2 h): −18%
copper found in the urine ([1]; at 2 h p.i.): 22 % ID
copper found in the liver [2]: 29.6±8.1 % ID
copper found in the spleen [2]: ~0.1 % ID
distribution half-life t½α [3]: 0.228 ± 0.0167 h
terminal elimination half-life (t½β) [3]: 4.93 ± 0.94 h
Substance: Cu(II)-GSSG complex
